Experiment [1] deals with phosphorylated AKT Ser473 (pAKT S473), mTORC2 activity, PC3 cells. Put plainly: mTOR target engagement assay, immunofluorescent cell-based, pAKT S473 readout (mTORC2 activity). The procedure, abridged:
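After blocking, cells were stained overnight at 4 °C with anti-pAKT S473 antibody, then a fluorescent secondary; inhibition was read as reduced fluorescence intensity.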

For experiment [2], the system named is phosphorylated 4E-BP1 Thr37/46 (p4E-BP1 Thr37/46), mTORC1 activity, PC3 cells. Put plainly: mTOR target engagement assay, immunofluorescent cell-based, p4E-BP1 Thr37/46 readout (mTORC1 activity). Conditions: read-out: p4E-BP1 Thr37/46 IC50. A digest of the protocol: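 Seed PC3 cells overnight; treat with compound dilutions for ninety minutes at 37° C; fix with glyoxal and block; stain with anti-p4E-BP1 Thr37/46 overnight at 4° C, then fluorescent secondary; read fluorescence and fit IC50 against DMSO-only controls.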

[3] abbreviates: Homo sapiens, PC-3, PC3 cells, compound treatment ninety minutes at 37° C.
Where [4] appears, read: Homo sapiens, PC-3, Table 3-1, PC3 cells.
The mark [5] stands for this setting: Homo sapiens, PC-3, Table 6-1, PC3 cells.

pIC50: −log10 of the molar value. Where two headings read alike, the source gives them in different places.

`CS(=O)(=O)c1c([C@@H]2C[C@H]3CC[C@@H](C2)N3C(=O)c2nnc[nH]2)nc2c(-c3ccc(-c4ccncc4)nc3)cnn2c1N` [Compound 3.64, ((1R,3s,5S)-3-(3-(2,4′-bipyridin-5-yl)-7-amino-6-(methylsulfonyl)pyrazolo[1,5-a]pyrimidin-5-yl)-8-azabicyclo[3.2.1]octan-8-yl)(4H-1,2,4-triazol-3-yl)methanone]: the pIC50 in experiment [1] (Table 3-1, PC3 cells) was 5.00 to 6.00; in experiment [2] (Table 3-1, PC3 cells), 5.00 to 6.00.

As for `CC(=O)c1c([C@@H]2C[C@H]3CC[C@@H](C2)N3C(=O)c2nnc[nH]2)nc2c(-c3ccc(-n4ccnc4)nc3)cnn2c1N` [Compound 1.1.129, 1-(3-(6-(1H-imidazol-1-yl)pyridin-3-yl)-5-((1R,3s,5S)-8-(4H-1,2,4-triazole-3-carbonyl)-8-azabicyclo[3.2.1]octan-3-yl)-7-aminopyrazolo[1,5-a]pyrimidin-6-yl)ethanone], the pIC50 in experiment [1] (setting [3]) and in experiment [2] (setting [3]) was < 5.00 in each case.

As to `CS(=O)(=O)c1c([C@@H]2C[C@H]3CC[C@@H](C2)N3C(=O)CO)nc2c(-c3cn[nH]c3)cnn2c1N` [Compound 3.114, 1-((1R,3s,5S)-3-(7-amino-6-(methylsulfonyl)-3-(1H-pyrazol-4-yl)pyrazolo[1,5-a]pyrimidin-5-yl)-8-azabicyclo[3.2.1]octan-8-yl)-1-hydroxyethanone], the pIC50 in experiment [1] (setting [4]) and in experiment [2] (setting [4]) was < 5.00 throughout.

Turning to `N#Cc1c([C@@H]2C[C@H]3CC[C@@H](C2)N3C(=O)c2nnc[nH]2)nc2c(-c3ccc(-c4nccs4)nc3)cnn2c1N` [Compound 5.3, 5-((1R,3s,5S)-8-(4H-1,2,4-triazole-3-carbonyl)-8-azabicyclo[3.2.1]octan-3-yl)-7-amino-3-(6-(thiazol-2-yl)pyridin-3-yl)pyrazolo[1,5-a]pyrimidine-6-carbonitrile], the pIC50 in experiment [1] (setting [3]) and in experiment [2] (setting [3]) was 7.00 to 9.00 throughout.

Turning to `Cc1nnc(C(=O)N2[C@@H]3CC[C@H]2C[C@H](c2nc4c(-c5ccc(-c6nc(C)c(C)s6)nc5)cnn4c(N)c2S(C)(=O)=O)C3)[nH]1` [Compound 3.197, ((1R,3s,5S)-3-(7-amino-3-(6-(4,5-dimethylthiazol-2-yl)pyridin-3-yl)-6-(methylsulfonyl)pyrazolo[1,5-a]pyrimidin-5-yl)-8-azabicyclo[3.2.1]octan-8-yl)(5-methyl-4H-1,2,4-triazol-3-yl]methanone], the pIC50 in experiment [1] (setting [4]) and in experiment [2] (setting [4]) was 6.00 to 7.00 each time.

On to `CC(=O)c1c([C@@H]2C[C@H]3CC[C@@H](C2)N3C(=O)CO)nc2c(-c3ccc(-c4ncc(C)[nH]4)c(F)c3)cnn2c1N` [Compound 6.38, 1-((1R,3s,5S)-3-(6-acetyl-7-amino-3-(3-fluoro-4-(5-methyl-1H-imidazol-2-yl)phenyl)pyrazolo[1,5-a]pyrimidin-5-yl)-8-azabicyclo[3.2.1]octan-8-yl)-2-hydroxyethanone], for which the values for the pIC50 in experiment [1] (setting [5]) and in experiment [2] (setting [5]) were 7.00 to 9.00 and 6.00 to 7.00, respectively.

Take `CC(=O)c1c([C@@H]2C[C@H]3CC[C@@H](C2)N3C(=O)C(C)(CO)CO)nc2c(-c3ccc(-c4ccccc4)nc3)cnn2c1N` [Compound 1.1.1, 1-((1R,3s,5S)-3-(6-acetyl-7-amino-3-(6-phenylpyridin-3-yl)pyrazolo[1,5-a]pyrimidin-5-yl)-8-azabicyclo[3.2.1]octan-8-yl)-3-hydroxy-2-(hydroxymethyl)-2-methylpropan-1-one]: the pIC50 in experiment [1] (setting [3]) and in experiment [2] (setting [3]) was 6.00 to 7.00 throughout.

Turning to `CNC(=O)N1[C@@H]2CC[C@H]1C[C@H](c1nc3c(-c4ccc(-c5ccccc5)nc4)cnn3c(N)c1C(C)=O)C2` [Compound 1.1.39, (1R,3s,5S)-3-(6-acetyl-7-amino-3-(6-phenylpyridin-3-yl)pyrazolo[1,5-a]pyrimidin-5-yl)-N-methyl-8-azabicyclo[3.2.1]octane-8-carboxamide], the pIC50 in experiment [1] (setting [3]) and in experiment [2] (setting [3]) was 7.00 to 9.00 each time.

Turning to `CS(=O)(=O)c1c([C@H]2CC3CC[C@H](C2)N3C(=O)c2nnc[nH]2)nc2c(-c3ccc(C4CCCC4)nc3)cnn2c1N` [Compound 3.166, ((1R,3s,5S)-3-(7-amino-3-(6-cyclopentylpyridin-3-yl)-6-(methylsulfonyl)pyrazolo[1,5-a]pyrimidin-5-yl)-8-azabicyclo[3.2.1]octan-8-yl)(4H-1,2,4-triazol-3-yl)methanone], the pIC50 in experiment [1] (setting [4]) and in experiment [2] (setting [4]) was 6.00 to 7.00 in each case.

On to `COc1ccc(-c2ccc(-c3cnn4c(N)cc([C@@H]5C[C@H]6CC[C@@H](C5)N6C(=O)c5nnc[nH]5)nc34)cn2)cc1CO` [Compound 2.6, ((1R,3s,5S)-3-(7-amino-3-(6-(3-(hydroxymethyl)-4-methoxyphenyl)pyridin-3-yl)pyrazolo[1,5-a]pyrimidin-5-yl)-8-azabicyclo[3.2.1]octan-8-yl)(4H-1,2,4-triazol-3-yl)methanone], for which the pIC50 in experiment [1] (setting [3]) and in experiment [2] (setting [3]) was 6.00 to 7.00 throughout.

As for `CC(=O)c1c([C@@H]2C[C@H]3CC[C@@H](C2)N3C(=O)c2ccn[nH]2)nc2c(-c3ccc(-c4ccc(F)cc4F)nc3)cnn2c1N` [Compound 1.1.167, 1-(5-((1R,3s,5S)-8-(1H-pyrazole-5-carbonyl)-8-azabicyclo[3.2.1]octan-3-yl)-7-amino-3-(6-(2,4-difluorophenyl)pyridin-3-yl)pyrazolo[1,5-a]pyrimidin-6-yl)ethanone], the pIC50 in experiment [1] (setting [3]) is 7.00 to 9.00; in experiment [2] (setting [3]), 6.00 to 7.00.

For the compound `CS(=O)(=O)c1c([C@@H]2C[C@H]3CC[C@@H](C2)N3C(=O)c2nnc[nH]2)nc2c(-c3ccc(OCC4CC4)nc3)cnn2c1N` [Compound 8.54, ((1R,3s,5S)-3-(7-amino-3-(6-(cyclopropylmethoxy)pyridin-3-yl)-6-(methylsulfonyl)pyrazolo[1,5-a]pyrimidin-5-yl)-8-azabicyclo[3.2.1]octan-8-yl)(4H-1,2,4-triazol-3-yl)methanone], the pIC50 in experiment [1] (Homo sapiens, PC-3, PC3 cells) is < 5.00; in experiment [2] (Homo sapiens, PC-3, PC3 cells), < 5.00.

With `CC(=O)c1c([C@@H]2C[C@H]3CC[C@@H](C2)N3C(=O)c2cc(N)n[nH]2)nc2c(-c3ccc(-n4cc(C)cn4)nc3)cnn2c1N` [Compound 1.1.132, 1-(7-amino-5-((1R,3s,5S)-8-(3-amino-1H-pyrazole-5-carbonyl)-8-azabicyclo[3.2.1]octan-3-yl)-3-(6-(4-methyl-1H-pyrazol-1-yl)pyridin-3-yl)pyrazolo[1,5-a]pyrimidin-6-yl)ethanone], the pIC50 in experiment [1] (setting [3]) and in experiment [2] (setting [3]) was 7.00 to 9.00 in each case.

As to `CCc1c([C@@H]2C[C@H]3CC[C@@H](C2)N3C(=O)c2nnc[nH]2)nc2c(-c3ccc(-c4ccccc4)nc3)cnn2c1N` [Compound 5.8, ((1R,3s,5S)-3-(7-amino-6-ethyl-3-(6-phenylpyridin-3-yl)pyrazolo[1,5-a]pyrimidin-5-yl)-8-azabicyclo[3.2.1]octan-8-yl)(4H-1,2,4-triazol-3-yl)methanone], the pIC50 in experiment [1] (setting [3]) and in experiment [2] (setting [3]) was 7.00 to 9.00 in each case.

As for `NC(=O)c1c([C@@H]2C[C@H]3CC[C@@H](C2)N3C(=O)c2nc[nH]n2)nc2c(-c3ccc(-c4ccccc4)nc3)cnn2c1N` [Compound 8.40], the pIC50 in experiment [1] (Homo sapiens, PC-3, PC3 cells) was 7.00 to 9.00; in experiment [2] (Homo sapiens, PC-3, PC3 cells), 7.00 to 9.00.

`COc1ccc2ncc(-c3cnn4c(N)c(C(C)=O)c([C@@H]5C[C@H]6CC[C@@H](C5)N6C(=O)c5nnc[nH]5)nc34)cc2c1` [Compound 1.1.125, 1-(5-((1R,3s,5S)-8-(4H-1,2,4-triazole-3-carbonyl)-8-azabicyclo[3.2.1]octan-3-yl)-7-amino-3-(6-methoxyquinolin-3-yl)pyrazolo[1,5-a]pyrimidin-6-yl)ethanone]: the pIC50 is 5.00 to 6.00 in experiment [1] (setting [3]) and 6.00 to 7.00 in experiment [2] (setting [3]).

Consider `CS(=O)(=O)c1c([C@@H]2C[C@H]3CC[C@@H](C2)N3C(=O)c2nnc[nH]2)nc2c(-c3cccnc3)cnn2c1N` [Compound 3.69, ((1R,3s,5S)-3-(7-amino-6-(methylsulfonyl)-3-(pyridin-3-yl)pyrazolo[1,5-a]pyrimidin-5-yl)-8-azabicyclo[3.2.1]octan-8-yl)(4H-1,2,4-triazol-3-yl)methanone], for which the pIC50 in experiment [1] (Table 3-1, PC3 cells) was 6.00 to 7.00; in experiment [2] (Table 3-1, PC3 cells), 6.00 to 7.00.

Consider `CS(=O)(=O)c1c([C@@H]2C[C@H]3CC[C@@H](C2)N3C(=O)c2nnc[nH]2)nc2c(-c3ccc(-c4ccc(F)cc4)nc3)cnn2c1N` [Compound 3.105, ((1R,3s,5S)-3-(7-amino-3-(6-(4-fluorophenyl)pyridin-3-yl)-6-(methylsulfonyl)pyrazolo[1,5-a]pyrimidin-5-yl)-8-azabicyclo[3.2.1]octan-8-yl)(4H-1,2,4-triazol-3-yl)methanone], for which the pIC50 in experiment [1] (setting [4]) and in experiment [2] (setting [4]) was 7.00 to 9.00 each time.

On to `CS(=O)(=O)c1c([C@H]2CC3CC[C@H](C2)N3C(=O)c2cn[nH]n2)nc2c(-c3cnn(-c4ccc(F)cc4)c3)cnn2c1N` [Compound 3.178, ((1R,3s,5S)-3-(7-amino-3-(1-(4-fluorophenyl)-1H-pyrazol-4-yl)-6-(methylsulfonyl)pyrazolo[1,5-a]pyrimidin-5-yl)-8-azabicyclo[3.2.1]octan-8-yl)(2H-1,2,3-triazol-4-yl)methanone], for which the pIC50 in experiment [1] (setting [4]) and in experiment [2] (setting [4]) was 5.00 to 6.00 throughout.
